SMILES strings stand for the structures.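 Interpolation was linear, between the two tested concentrations surrounding the appropriate level; five concentrations were tested over 48 hours in 96-well plates. At the TGI there is no net growth.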

Data on 16 compounds can be found in PubChem BioAssay (NCI).

The first assay deals with MALME-3M melanoma. The experiment in a line: NCI anticancer screen, dose series, 48 h.
With `CC1(C)OCN(c2ccc(N3CCOCC3)cc2)Cn2c1nc1ccccc12`, the TGI was over 100 µM.
On the same count and under the same terms, next, `CN(C)/C=C/C(=CC=[N+](C)C)/C=C/N(C)C`: over 100 µM; `N#C[S-].[La+3].c1cnc2c(c1)ccc1cccnc12.c1cnc2c(c1)ccc1cccnc12.c1cnc2c(c1)ccc1cccnc12`: 7.06 µM.
On the same count and under the same terms, the result for `CC1(C)C2CCC1(C)C(N/C(Sc1ccccc1)=C(/C(Cl)=C(Cl)Cl)[N+](=O)[O-])C2` (stereo not drawn) reads 28.4 µM; that for `COc1cc2c(cc1O)c(O)cc1c3cc(OC)c(OC)cc3c[n+](C)c21`, over 100 µM; that for `C/C(=N\NS(=O)(=O)c1ccc(C)cc1)c1ccccn1`, over 100 µM.
Consider `Cc1cc(C)c2c(=O)cc(-c3cccc4ccccc34)[nH]c2n1`, for which the TGI was determined as 3.29 µM.
Consider `O=S(Cc1ccccc1)c1nc2ccccc2nc1-c1cccs1` (stereo not drawn), for which the TGI turned out to be 19.4 µM.
Regarding `C=C(C)C1CCC(C(=O)O)CC1` (stereo not drawn), the TGI was over 100 µM.
Still for that read-out and setting: the result for `C=CC[C@]1(/C=N/O)CN(S(=O)(=O)CC[Si](C)(C)C)C[C@H]2CC=CC[C@H]21` reads 40.4 µM; that for `O=C1NC(=S)N/C1=C\c1cccs1`, over 100 µM.
Still for that read-out and setting: the result for `CCN1C[C@]2(C)CC[C@H](O)C34C1C(C[C@@H]32)[C@@]1(O)CC[C@H]2C[C@@H]4[C@@H]1[C@H]2O` reads over 100 µM; that for `CC12C=CC(C)(C3C(=O)C4C(C(=O)C31)C1(C)C=CC4(C)S1=O)S2=O` (stereo not drawn), over 100 µM; that for `CCC(CC)NC1=C(NC(C)=O)C(=O)c2ccccc2C1=O`, over 50 µM.
For `O=C(NN1C(=O)C(Cl)C1c1ccc(Cl)cc1)c1c(Cl)c(Cl)c(Cl)c(Cl)c1-c1nc2ccccc2[nH]1` (stereo not drawn), the TGI stood at 63.4 µM.
The same measure, in the same setting: next, `CC1(c2cccc(C3CC4(CCC3=O)OCCCCO4)c2)OCCO1` (stereo not drawn): over 100 µM.

Another assay deals with SR leukemia. As to the kind of experiment: NCI anticancer screen, dose series, 48 h.
Compound `CC1(C)OCN(c2ccc(N3CCOCC3)cc2)Cn2c1nc1ccccc12` registered a TGI of 92.7 µM.
`CN(C)/C=C/C(=CC=[N+](C)C)/C=C/N(C)C` returned a TGI of over 100 µM.
The same measure, in the same setting: next, `N#C[S-].[La+3].c1cnc2c(c1)ccc1cccnc12.c1cnc2c(c1)ccc1cccnc12.c1cnc2c(c1)ccc1cccnc12`: 8.8 µM; `C/C(=N\NS(=O)(=O)c1ccc(C)cc1)c1ccccn1`: over 100 µM.
The compound `Cc1cc(C)c2c(=O)cc(-c3cccc4ccccc34)[nH]c2n1` had a TGI of over 100 µM.
The compound `CCN1C[C@]2(C)CC[C@H](O)C34C1C(C[C@@H]32)[C@@]1(O)CC[C@H]2C[C@@H]4[C@@H]1[C@H]2O` displayed a TGI of over 100 µM.
Same read-out and setting: next, `CCC(CC)NC1=C(NC(C)=O)C(=O)c2ccccc2C1=O`: over 50 µM; `O=C(NN1C(=O)C(Cl)C1c1ccc(Cl)cc1)c1c(Cl)c(Cl)c(Cl)c(Cl)c1-c1nc2ccccc2[nH]1` (stereo not drawn): over 100 µM.

The next assay has as its system SK-MEL-5 melanoma. The experiment in a line: NCI anticancer screen, dose series, 48 h.
Consider `CN(C)/C=C/C(=CC=[N+](C)C)/C=C/N(C)C`, for which the TGI is over 100 µM.
In the case of `N#C[S-].[La+3].c1cnc2c(c1)ccc1cccnc12.c1cnc2c(c1)ccc1cccnc12.c1cnc2c(c1)ccc1cccnc12`, the TGI is 12.7 µM.
Still for that read-out and setting: the result for `COc1cc2c(cc1O)c(O)cc1c3cc(OC)c(OC)cc3c[n+](C)c21` reads 40.2 µM; that for `C/C(=N\NS(=O)(=O)c1ccc(C)cc1)c1ccccn1`, over 100 µM; that for `Cc1cc(C)c2c(=O)cc(-c3cccc4ccccc34)[nH]c2n1`, 1.74 µM.
Same read-out and setting: next, `O=S(Cc1ccccc1)c1nc2ccccc2nc1-c1cccs1` (stereo not drawn): 23.7 µM; `C=C(C)C1CCC(C(=O)O)CC1` (stereo not drawn): over 100 µM.
Consider `C=CC[C@]1(/C=N/O)CN(S(=O)(=O)CC[Si](C)(C)C)C[C@H]2CC=CC[C@H]21`, for which the TGI was over 100 µM.
Take `O=C1NC(=S)N/C1=C\c1cccs1`: the TGI is over 100 µM.
Compound `CCN1C[C@]2(C)CC[C@H](O)C34C1C(C[C@@H]32)[C@@]1(O)CC[C@H]2C[C@@H]4[C@@H]1[C@H]2O` returned a TGI of over 100 µM.
Same read-out and setting: the result for `CC12C=CC(C)(C3C(=O)C4C(C(=O)C31)C1(C)C=CC4(C)S1=O)S2=O` (stereo not drawn) reads over 100 µM; that for `CCC(CC)NC1=C(NC(C)=O)C(=O)c2ccccc2C1=O`, over 50 µM; that for `O=C(NN1C(=O)C(Cl)C1c1ccc(Cl)cc1)c1c(Cl)c(Cl)c(Cl)c(Cl)c1-c1nc2ccccc2[nH]1` (stereo not drawn), over 100 µM.
`CC1(c2cccc(C3CC4(CCC3=O)OCCCCO4)c2)OCCO1` (stereo not drawn) yielded a TGI of over 100 µM.

For a further assay, the system named is COLO 205 colon. The experiment in a line: NCI anticancer screen, dose series, 48 h.
The compound `CC1(C)OCN(c2ccc(N3CCOCC3)cc2)Cn2c1nc1ccccc12` displayed a TGI of over 100 µM.
`N#C[S-].[La+3].c1cnc2c(c1)ccc1cccnc12.c1cnc2c(c1)ccc1cccnc12.c1cnc2c(c1)ccc1cccnc12` had a TGI of 16.1 µM.
In the case of `COc1cc2c(cc1O)c(O)cc1c3cc(OC)c(OC)cc3c[n+](C)c21`, the TGI was over 100 µM.
Regarding `C/C(=N\NS(=O)(=O)c1ccc(C)cc1)c1ccccn1`, the TGI is 93.5 µM.
Take `Cc1cc(C)c2c(=O)cc(-c3cccc4ccccc34)[nH]c2n1`: the TGI came out at 2.03 µM.
Turning to `O=S(Cc1ccccc1)c1nc2ccccc2nc1-c1cccs1` (stereo not drawn), the TGI is 42.7 µM.
`C=C(C)C1CCC(C(=O)O)CC1` (stereo not drawn) showed a TGI of over 100 µM.
Still for that read-out and setting: the result for `C=CC[C@]1(/C=N/O)CN(S(=O)(=O)CC[Si](C)(C)C)C[C@H]2CC=CC[C@H]21` reads 32.6 µM; that for `O=C1NC(=S)N/C1=C\c1cccs1`, over 100 µM; that for `CCN1C[C@]2(C)CC[C@H](O)C34C1C(C[C@@H]32)[C@@]1(O)CC[C@H]2C[C@@H]4[C@@H]1[C@H]2O`, over 100 µM.
On the same count and under the same terms, the result for `CC12C=CC(C)(C3C(=O)C4C(C(=O)C31)C1(C)C=CC4(C)S1=O)S2=O` (stereo not drawn) reads over 100 µM; that for `CCC(CC)NC1=C(NC(C)=O)C(=O)c2ccccc2C1=O`, over 50 µM; that for `O=C(NN1C(=O)C(Cl)C1c1ccc(Cl)cc1)c1c(Cl)c(Cl)c(Cl)c(Cl)c1-c1nc2ccccc2[nH]1` (stereo not drawn), 36.2 µM.
Same read-out and setting: next, `CC1(c2cccc(C3CC4(CCC3=O)OCCCCO4)c2)OCCO1` (stereo not drawn): over 100 µM.

In the next assay the test system is MDA-N. As to the kind of experiment: NCI anticancer screen, dose series, 48 h.
In turn, `CC1(C)C2CCC1(C)C(N/C(Sc1ccccc1)=C(/C(Cl)=C(Cl)Cl)[N+](=O)[O-])C2` (stereo not drawn) had a TGI of 27.6 µM.
